From patent US10668049B2, “Methods of treating cognitive decline with transforming growth factor beta inhibitors” (The Regents of the University of California, priority 2008, dated 2020)

Assays:
[1] = target: T1, TGF-βRII (Rattus norvegicus, UniProt P38438); assay: Albumin and TGF-βRII co-immunoprecipitation in cortical lysates; format: binding; conditions: cortical lysate pre-incubated with albumin
T1 construct: brains were isolated from adult Wistar rats, dissected in cold saline solution and lysed in RIPA buffer; from tissue; host or cells: adult Wistar rat brain cortex lysate (RIPA buffer)
T1 sequence (P38438 24-567): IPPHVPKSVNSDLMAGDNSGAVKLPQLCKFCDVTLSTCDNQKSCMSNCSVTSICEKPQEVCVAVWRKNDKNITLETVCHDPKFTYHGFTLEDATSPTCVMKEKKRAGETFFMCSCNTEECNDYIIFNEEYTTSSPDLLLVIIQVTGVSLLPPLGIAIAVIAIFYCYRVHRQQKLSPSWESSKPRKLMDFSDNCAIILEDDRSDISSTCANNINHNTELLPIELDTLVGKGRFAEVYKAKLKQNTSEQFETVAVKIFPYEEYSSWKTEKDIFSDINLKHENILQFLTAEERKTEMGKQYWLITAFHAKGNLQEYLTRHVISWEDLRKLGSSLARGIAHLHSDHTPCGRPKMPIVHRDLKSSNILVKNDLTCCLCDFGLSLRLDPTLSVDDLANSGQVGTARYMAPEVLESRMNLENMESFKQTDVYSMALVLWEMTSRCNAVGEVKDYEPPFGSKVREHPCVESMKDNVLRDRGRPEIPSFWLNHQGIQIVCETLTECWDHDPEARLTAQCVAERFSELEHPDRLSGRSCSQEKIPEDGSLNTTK
Procedure: To prepare cortical lysates, brains were isolated from adult Wistar rats, dissected in cold saline solution and lysed in RIPA buffer. BSA (3 μg) was added to lysates to approximately match the amount of precipitating anti-albumin antibodies. Immunoprecipitation was performed using the Catch and Release® v2.0 Reversible Immunoprecipitation System (Upstate, Charlottesville, Va.) with the following modifications to the standard protocol: the starting amount of protein was increased to 1,500 μg and the incubation time with precipitating antibodies was increased to 90 minutes. […]
The immunoprecipitated samples were separated with SDS-PAGE and transferred onto a nitrocellulose membrane. […] TGF-βRII was detected with a rabbit anti-TGF-βRII antibody (Upstate) and an AP-conjugated donkey anti-rabbit IgG secondary antibody (Jackson ImmunoResearch Laboratories, West Grove, Pa.). […]
To determine whether albumin binds to TGF-β receptors, co-immunoprecipitation using antibodies against albumin or TGF-βRII was performed on cortical lysate samples treated with albumin. An expected hand corresponding to TGF-βRII was detected in samples immunoprecipitated with the TGF-βRII antibody. More importantly, this band was also detected in samples pre-incubated with albumin when immunoprecipitated with the albumin antibody and probed for TGF-βRII (FIG. 2a). […]

[2] = system: neuronal-enriched culture; assay: RT-PCR of neuronal-enriched cultures exposed to albumin; format: cell-based, rat; conditions: albumin for 24 h
Procedure: Primary neuronal cortical cultures were prepared from embryonic day 18 rats as reported previously (Kaufer et al., 2004). Briefly, cells were dissociated with a papain solution for 20 min at 37° C., After the removal of the papain solution, the tissue was resuspended in growth medium [MEM with Earle's salts containing 2.5% B27 supplement, 0.1% mito serum extender, 5% fetal bovine serum (FBS), 20 mM glucose, and 5 mM L-glutamine] and dissociated by mechanical trituration. The cells were plated, and after 4 h in vitro the cell culture medium was replaced with neurobasal medium supplemented with 2% B27 supplement and 0.5 mM GlutaMAX™. The cells were maintained in 5% CO2 at 37° C. After 7 days in vitro, cytosine arabinofuranoside (AraC) (10 μM) was added to the cultures. After 10 days in vitro, the cells were incubated with 0.4 mM albumin for 24 h at 37° C. For astrocytic cultures, astrocytcs were isolated from the cerebral cortices of PO rat pups. Cells were dissociated with papain and mechanical trituration. The cells were cultured in high-glucose Dulbecco's modified eagle medium supplemented with 10% FBS and 1% penicillin/streptomycin at 37° C. and in 5% C02 (medium was replaced every 3-4 days). After 10 days in vitro, the culture medium was replaced with serum-free high-glucose DMEM (containing 1% penicillin/streptomycin) for 18 h. The cells were then incubated in scrum-free medium containing 0.4 mM albumin for 24 h at 37° C. […]
Total RNA was isolated from the somatosensory cortices of animals treated with DOC or albumin (24 h treatment; n=3) or from primary cultures (astrocytic and neuronal, n=3 independent experiments). Expression levels were determined by real-time reverse transcriptase-PCR (RT-PCR) with an iQ5 detection system (Bio-Rad, Hercules, Calif.) using gene-specific primer pairs. RT-PCR data were analyzed using the PCR Miner program (Zhao and Fernald, 2005), and fold changes in gene expression were represented relative to sham-operated controls (in-vivo samples) or serum-deprived controls (in-vitro, samples). […]

For “albumin: bovine serum albumin, used to induce epileptogenesis”, the “interaction with TGF-βRII (co-immunoprecipitation)” value [1] was “direct interaction”, the “GS mRNA levels” value [2] was “downregulation” and the “Gjb6 mRNA levels” value [2] was “upregulation”. For the same substance, the “expression levels of the same transcripts (except GS and Gjb6)” value [2] was “No significant differences”.
